Measured values: PubChem BioAssay AID2060489 (Molecular Pharmacology Branch, DTP, NCI, 2025)

Test system: 922993-354-T-J3-PDC complex spheroids, viability
Assay: Anticancer human tumor 922993-354-T-J3-PDC patient-derived endometrial carcinoma cell line growth inhibition [GQUAD]
Details: for IC50: curve of first compound; for viability, T/C: stronger effect = lower value
Description: DNA G-quadruplex Stabilizer Agents in Combinations in Complex Spheroids
A high-throughput screen of multi-cell type tumor spheroids was designed to identify active combinations of DNA G-quadruplex stabilizer agents and targeted small molecules. Complex spheroids include a stromal component modeled by human endothelial cells (HUVEC) and fibroblasts modeled by human mesenchymal stem cells (MSCs). The concentration ranges selected for each drug and investigational agent were based upon clinically achievable concentrations if the clinical Cmax of the agent was known.
Compounds. The drugs and investigational agents: pidnarulex (CX-5461; NSC782164), APTO-253 (NSC789042), BRACO-19 (NSC847499), peposertib (NSC802822), ceralasertib (NSC780249), elimusertib (NSC800525), camonsertib (NSC841442), AZD-1390 (NSC803789), olaparib (NSC753686), talazoparib (NSC767125), ART-558 (NSC835418), sotorasib (NSC818433), MRTX-1133 (NSC836407), SN-38 (NSC673596), topotecan (NSC609699), etoposide (NSC141540), doxorubicin (NSC123127), gemcitabine (NSC613327), 5-fluorouracil (NSC19893), paclitaxel (NSC125973), vemurafenib (NSC761431), panobinostat (NSC761190), R-306465 (JNJ-16241199; NSC773264), adavosertib (NSC754352), TP-3654 (NSC805149), carboplatin (NSC241240), KSQ-4279 (NSC840948), and staurosporine (NSC755774) were obtained from the National Cancer Institute (NCI) Developmental Therapeutics Program Chemical Repository (34). The FDA-approved anticancer drug set is available from the NCI Developmental Therapeutics Program. […] The stock solutions were prepared in dimethyl sulfoxide (DMSO, Sigma-Aldrich, St. Louis, MO, cat. D2650) at 800-fold the tested concentration and stored at -70 degrees C prior to their use. All drugs and investigational agents were tested over a range starting from a high concentration at or near the clinical Cmax and decreasing in half-log increments. If the clinical Cmax for an agent had not been determined, the highest concentration tested was 10 microM.
2.3 Cell Culture. All cells were maintained in an incubator at 37 degrees C and 5% CO2 with 95% humidity. The PDC lines were cultured according to standard operating procedures established by the NCI PDMR. All PDCs were thawed and cultured in Matrigel-coated flasks prepared with a working solution of 1X Ham's F-12 nutrient mix, without supplementation (Invitrogen, cat. 11765054), 100 U/mL penicillin-streptomycin (Invitrogen, cat. 15140122), and 2.5% Matrigel (Corning Inc., cat. 354248) for the first three passages. The 857933-349-R-J2-PDC line was cultured in 6C/Colon 1B media, which includes advanced DMEM/F-12 (Thermo Fisher Scientific, cat. 12634028), 10 mM HEPES (Thermo Fisher Scientific, cat. 15630080), 1X GlutaMAX supplement (Thermo Fisher Scientific, cat. 35050061), 0.1 mg/mL primocin (InvivoGen, cat. ant-pm-2), 10% defined fetal bovine serum, heat inactivated (HyClone Laboratories Inc., cat. SH30070.03HI), 50% L-WRN conditioned media (ATCC, cat. CRL-3276), 1.25 mM N-Acetyl-L-cysteine (Sigma-Aldrich, cat. A9165), 10 mM nicotinamide (Sigma-Aldrich, cat. N0636), 1X B-27 supplement (Thermo Fisher Scientific, cat. 17504044), 1X N-2 supplement (Thermo Fisher Scientific, cat. 17502048), 10 microM Y-27632 dihydrochloride (Tocris Bioscience, cat. 1254), and 50 ng/mL human EGF recombinant protein (Thermo Fisher Scientific, cat. PHG0311). The 485176-168-R4-J1-PDC line was cultured in Panc media, which includes all 6C/Colon 1B media components plus 100 ng/mL human FGF-10 (Thermo Fisher Scientific, cat. 100-26), 500 nM SB-431542 (Selleckchem, cat. S1067), and gastrin (Tocris, cat. 3006).
[…]

[1] = second compound 0.0316 µM, first compound 0.0316 µM
[2] = second compound 0.0316 µM, first compound 0.316 µM
[3] = second compound 0.1 µM, first compound 0.0316 µM
[4] = second compound 0.1 µM, first compound 0.316 µM
[5] = second compound 0.316 µM, first compound 0.0316 µM
[6] = second compound 0.316 µM, first compound 0.316 µM
[7] = second compound 1 µM, first compound 0.0316 µM
[8] = second compound 1 µM, first compound 0.316 µM
[9] = second compound 3.16 µM, first compound 0.0316 µM
[10] = second compound 3.16 µM, first compound 0.316 µM
[11] = second compound 10 µM, first compound 0.0316 µM
[12] = second compound 10 µM, first compound 0.316 µM
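Also: spheroids exposed to compounds for seven days.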
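For viability, T/C in this document: 100% = DMSO vehicle control viability.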

`CC1COCCN1c1cc(C2(S(C)(=N)=O)CC2)nc(-c2ccnc3[nH]ccc23)n1` (centres undefined) + Cc1[nH]c2ccc(F)cc2c1-c1nc2c3cccnc3c3ncccc3c2[nH]1 was tested, and the IC50 (second compound 0.0316 µM) was over 10000 nM, the IC50 (second compound 0.1 µM) was over 10000 nM and the IC50 (second compound 0.316 µM) was over 10000 nM. It also gave an IC50 (second compound 1 µM) of over 10000 nM, an IC50 (second compound 3.16 µM) of over 10000 nM and an IC50 (second compound 10 µM) of over 10000 nM. The viability, T/C [1] was 103%, the viability, T/C (second compound 0.0316 µM, first compound 0.1 µM) was 96.9% and the viability, T/C [2] was 110%. It also gave a viability, T/C (second compound 0.0316 µM, first compound 1 µM) of 83.9%, a viability, T/C (second compound 0.0316 µM, first compound 3.16 µM) of 114% and a viability, T/C (second compound 0.0316 µM, first compound 10 µM) of 60.6%. It also gave a viability, T/C [3] of 110%, a viability, T/C (second compound 0.1 µM, first compound 0.1 µM) of 107% and a viability, T/C [4] of 138%. For the same molecule, the viability, T/C (second compound 0.1 µM, first compound 1 µM) was 132%, the viability, T/C (second compound 0.1 µM, first compound 3.16 µM) was 106% and the viability, T/C (second compound 0.1 µM, first compound 10 µM) was 67.5%. For the same molecule, the viability, T/C [5] was 135%, the viability, T/C (second compound 0.316 µM, first compound 0.1 µM) was 117% and the viability, T/C [6] was 109%. It also gave a viability, T/C (second compound 0.316 µM, first compound 1 µM) of 124%, a viability, T/C (second compound 0.316 µM, first compound 3.16 µM) of 79.6% and a viability, T/C (second compound 0.316 µM, first compound 10 µM) of 67%. It also gave a viability, T/C [7] of 118%, a viability, T/C (second compound 1 µM, first compound 0.1 µM) of 106% and a viability, T/C [8] of 109%. The viability, T/C (second compound 1 µM, first compound 1 µM) was 106%, the viability, T/C (second compound 1 µM, first compound 3.16 µM) was 106% and the viability, T/C (second compound 1 µM, first compound 10 µM) was 80.1%. The viability, T/C [9] was 92.3%, the viability, T/C (second compound 3.16 µM, first compound 0.1 µM) was 124% and the viability, T/C [10] was 87.2%. It also gave a viability, T/C (second compound 3.16 µM, first compound 1 µM) of 104%, a viability, T/C (second compound 3.16 µM, first compound 3.16 µM) of 88.8% and a viability, T/C (second compound 3.16 µM, first compound 10 µM) of 81.4%. The viability, T/C [11] was 138%, the viability, T/C (second compound 10 µM, first compound 0.1 µM) was 104% and the viability, T/C [12] was 128%. It also gave a viability, T/C (second compound 10 µM, first compound 1 µM) of 96.3%, a viability, T/C (second compound 10 µM, first compound 3.16 µM) of 101% and a viability, T/C (second compound 10 µM, first compound 10 µM) of 89%.
`CC[C@@]1(O)C(=O)OCc2c1cc1n(c2=O)Cc2cc3c(CN(C)C)c(O)ccc3nc2-1` + Cc1[nH]c2ccc(F)cc2c1-c1nc2c3cccnc3c3ncccc3c2[nH]1 was tested, and the IC50 (second compound 0.0316 µM) was over 316 nM, the IC50 (second compound 0.1 µM) was over 316 nM and the IC50 (second compound 0.316 µM) was over 316 nM. The IC50 (second compound 1 µM) was 307 nM, the IC50 (second compound 3.16 µM) was over 316 nM and the IC50 (second compound 10 µM) was 282 nM. The viability, T/C (second compound 0.0316 µM, first compound 0.000999 µM) was 91.8%, the viability, T/C (second compound 0.0316 µM, first compound 0.00316 µM) was 95.9% and the viability, T/C (second compound 0.0316 µM, first compound 0.00999 µM) was 109%. It also gave a viability, T/C [1] of 105%, a viability, T/C (second compound 0.0316 µM, first compound 0.0999 µM) of 82.4% and a viability, T/C [2] of 57.1%. For the same molecule, the viability, T/C (second compound 0.1 µM, first compound 0.000999 µM) was 94%, the viability, T/C (second compound 0.1 µM, first compound 0.00316 µM) was 98.1% and the viability, T/C (second compound 0.1 µM, first compound 0.00999 µM) was 79.3%. It also gave a viability, T/C [3] of 104%, a viability, T/C (second compound 0.1 µM, first compound 0.0999 µM) of 77% and a viability, T/C [4] of 55.6%. The viability, T/C (second compound 0.316 µM, first compound 0.000999 µM) was 125%, the viability, T/C (second compound 0.316 µM, first compound 0.00316 µM) was 84.3% and the viability, T/C (second compound 0.316 µM, first compound 0.00999 µM) was 103%. It also gave a viability, T/C [5] of 92.1%, a viability, T/C (second compound 0.316 µM, first compound 0.0999 µM) of 97.5% and a viability, T/C [6] of 52.4%. The viability, T/C (second compound 1 µM, first compound 0.000999 µM) was 97.1%, the viability, T/C (second compound 1 µM, first compound 0.00316 µM) was 106% and the viability, T/C (second compound 1 µM, first compound 0.00999 µM) was 89.8%. For the same molecule, the viability, T/C [7] was 104%, the viability, T/C (second compound 1 µM, first compound 0.0999 µM) was 90.6% and the viability, T/C [8] was 48.7%. For the same molecule, the viability, T/C (second compound 3.16 µM, first compound 0.000999 µM) was 74.5%, the viability, T/C (second compound 3.16 µM, first compound 0.00316 µM) was 108% and the viability, T/C (second compound 3.16 µM, first compound 0.00999 µM) was 93.1%. The viability, T/C [9] was 93.3%, the viability, T/C (second compound 3.16 µM, first compound 0.0999 µM) was 89.5% and the viability, T/C [10] was 67.4%. For the same molecule, the viability, T/C (second compound 10 µM, first compound 0.000999 µM) was 134%, the viability, T/C (second compound 10 µM, first compound 0.00316 µM) was 91.1% and the viability, T/C (second compound 10 µM, first compound 0.00999 µM) was 109%. The viability, T/C [11] was 97.2%, the viability, T/C (second compound 10 µM, first compound 0.0999 µM) was 74.6% and the viability, T/C [12] was 45.2%.
